{"source": "patent US20050215551A1", "about": "“1-[2H-1-benzopyran-2-one-8-yl]- piperazine derivatives for the treatment of movement disorders” (SOLVAY PHARMACEUTICALS B.V., priority 2004, published 2005)", "key": {"BDNF": {"tested_on": "BDNF", "experiment": "Induction of growth factors: BDNF RNA in brain areas by quantitative PCR", "type": "in vivo", "conditions": "3 mg/kg p.o. once daily, 3 weeks", "description": "Compounds of the invention (3 mg/kg, p.o.) or vehicle are administered once daily during a period of 3 weeks (n=8 animals per treatment group). 24 hours after the last dose the animals are sacrificed (using CO2/O2 anesthesia), the brains are removed and the dissected. RNA is extracted from the individual brain samples and induction of the growth factors BDNF and GDNF is determined by quantitative PCR. Total RNA is isolated with the Trizol method (Invitrogen) from the brain pieces. cDNA is made starting with 2 μg of total RNA (pretreated for 30 min with DNAse (Ambion) in first strand buffer) using the reverse transcriptase Superscript II (Invitrogen). Quantification of […] by real time PCR makes use of the observation that the early cycles of PCR are characterized by an exponential increase in target amplification. The accumulation of PCR product is measured using Sybergreen II. Primers are designed using the software package Primer Express (Applied Biosystems). Expression levels of the housekeeping genes ornithine decarboxylase (ODC_ex8) and alpha tubulin (TUBA) used for normalization and as control for good cDNA synthesis."}, "5-HT1A": {"molecular_target": "T1, 5-HT1A (Rattus norvegicus, UniProt P19327)", "T1 construct": "from tissue; host or cells: whole animal (in vivo behavioural test)", "T1 sequence (P19327 whole entry)": "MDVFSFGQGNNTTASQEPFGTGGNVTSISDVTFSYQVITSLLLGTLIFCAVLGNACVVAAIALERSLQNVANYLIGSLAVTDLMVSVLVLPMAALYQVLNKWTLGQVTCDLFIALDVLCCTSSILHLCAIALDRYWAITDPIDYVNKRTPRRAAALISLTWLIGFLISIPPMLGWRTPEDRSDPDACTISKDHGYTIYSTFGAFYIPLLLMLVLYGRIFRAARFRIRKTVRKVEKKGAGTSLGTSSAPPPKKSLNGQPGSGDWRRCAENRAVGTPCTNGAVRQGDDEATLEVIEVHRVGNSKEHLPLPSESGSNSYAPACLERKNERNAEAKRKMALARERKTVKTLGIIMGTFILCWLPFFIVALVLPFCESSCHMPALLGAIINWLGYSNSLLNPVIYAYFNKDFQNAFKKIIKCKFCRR", "experiment": "In vivo 5-HT1A agonism: lower lip retraction (LLR)", "conditions": "60 minutes after oral administration", "description": "Lower lip retraction was measured according to the method described by Berendsen et al., (Pharmacol. Biochem. Behav. 33, (1989), 821-827)."}, "bradykinin": {"molecular_target": "bradykinin (Homo sapiens, UniProt P30411)", "sequence (P30411 whole entry)": "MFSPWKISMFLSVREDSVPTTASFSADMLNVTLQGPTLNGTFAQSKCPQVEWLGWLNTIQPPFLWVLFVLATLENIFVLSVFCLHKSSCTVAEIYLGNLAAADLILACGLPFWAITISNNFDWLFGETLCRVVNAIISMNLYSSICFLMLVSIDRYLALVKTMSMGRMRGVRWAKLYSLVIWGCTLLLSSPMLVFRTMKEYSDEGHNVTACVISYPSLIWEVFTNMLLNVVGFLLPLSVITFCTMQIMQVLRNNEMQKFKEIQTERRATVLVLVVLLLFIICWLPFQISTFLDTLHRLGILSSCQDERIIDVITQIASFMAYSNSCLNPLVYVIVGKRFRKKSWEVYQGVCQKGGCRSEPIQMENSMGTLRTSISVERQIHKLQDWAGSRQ", "experiment": "Receptor binding bradykinin", "conditions": "radioligand [3H]-bradykinin, read-out: Ki(nM) Compound 1", "description": "(§1) Receptor binding data were obtained by CEREP (128, rue Danton, 92500 Rueil-Malmaison, France) or at Solvay Pharmaceuticals B.V., using well documented standard procedures. Affinity for 5-HT1A receptors for instance, was determined by testing the ability of the compounds of the invention to displace [^3H]-2-(di-n-propylamino)-8-hydroxytetralin ([^3H]-8-OH-DPAT) from its specific binding sites in rat frontal cortex homogenates. This test is based on the method described by Gozlan et al. (Nature, 305, (1983), pages 140-142).\n(§2) The binding data collected in the table below were either obtained by CEREP (128, rue Danton, 92500 Rueil-Malmaison, France) or at Solvay Pharmaceuticals B.V., using well documented standard procedures."}, "Neurokinin-NK1": {"molecular_target": "Neurokinin-NK1 (Homo sapiens, UniProt P25103)", "sequence (P25103 whole entry)": "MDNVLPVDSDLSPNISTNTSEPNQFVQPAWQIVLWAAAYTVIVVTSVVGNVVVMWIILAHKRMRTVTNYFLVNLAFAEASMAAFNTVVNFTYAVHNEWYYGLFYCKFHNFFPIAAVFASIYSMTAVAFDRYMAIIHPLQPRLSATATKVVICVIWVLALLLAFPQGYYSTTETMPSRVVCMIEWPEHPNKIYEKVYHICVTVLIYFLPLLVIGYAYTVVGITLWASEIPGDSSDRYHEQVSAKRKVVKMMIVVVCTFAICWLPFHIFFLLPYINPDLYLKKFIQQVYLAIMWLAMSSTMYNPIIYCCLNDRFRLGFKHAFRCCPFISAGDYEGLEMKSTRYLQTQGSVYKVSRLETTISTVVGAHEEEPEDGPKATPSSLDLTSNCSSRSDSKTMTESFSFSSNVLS", "experiment": "Receptor binding Neurokinin-NK1", "conditions": "radioligand [3H]-substance P, read-out: Ki(nM) Compound 1", "description": "as §1, §2"}}, "data": [{"smiles": "Nc1cc2cccc(N3CCNCC3)c2oc1=O", "note": "[Compound 1, 3-amino-8-(1-piperazinyl)-2H-1-benzopyran-2-one]", "values": [{"measurement": "BDNF RNA, fold increase compared to vehicle treatment", "setting": "BDNF; hippocampus", "result": 2.4, "unit": "fold"}, {"measurement": "BDNF RNA, fold increase compared to vehicle treatment", "setting": "BDNF; nucleus accumbens", "result": 5.1, "unit": "fold"}, {"measurement": "BDNF RNA, fold increase compared to vehicle treatment", "setting": "BDNF; prefrontal cortex", "result": 2.1, "unit": "fold"}, {"measurement": "BDNF RNA, fold increase compared to vehicle treatment", "setting": "BDNF; striatum", "result": 1.8, "unit": "fold"}, {"measurement": "BDNF RNA, fold increase compared to vehicle treatment", "setting": "BDNF; thalamus", "result": 2.3, "unit": "fold"}, {"measurement": "ED50", "setting": "5-HT1A", "result": 0.12, "unit": "mg/kg"}, {"measurement": "Ki", "setting": "bradykinin", "result": "> 1000", "unit": "nM"}, {"measurement": "Ki", "setting": "Neurokinin-NK1", "result": "> 1000", "unit": "nM"}]}]}
